# From patent US9079899B2, “Anti-staphylococcal celecoxib derivatives” (THE OHIO STATE UNIVERSITY, priority 2010, dated 2015)
# Where two headings read alike, the source gives them in different places.
# Key:
# MRSA (SCCmec VT) = assay: MIC, broth microdilution; type: cell-based, methicillin-resistant Staphylococcus aureus
# S. aureus (ATCC 29213) = assay: MIC, broth microdilution; type: cell-based
# [1] = tested on: S. epidermidis (ATCC 35984); assay: MIC, broth microdilution; type: cell-based; conditions: for MIC S. epidermidis (ATCC 35984): CAMHB, 24 h, 37° C.; for MIC: S. epidermidis (ATCC 35984)
# [2] = tested on: HT-29 human colon adenocarcinoma cells; assay: Antiproliferative assay (MTT); type: cell-based; conditions: 24-h exposure, 10% FBS-supplemented RPMI 1640, MTT; for IC50: Homo sapiens, HT-29
# Procedure: As celecoxib has been reported to be cytotoxic to cancer cells, the growth inhibitory activities of celecoxib and selected derivatives were assessed in. HT-29 human colon adenocarcinoma cells after 24-h exposure in 10% FBS-supplemented RPMI 1640 medium.
# Antiproliferative assay. The cytotoxicity of individual test agents in HT-29 human colon adenocarcinoma cells was evaluated by using the 3-(4,5-dimethylthiazol-2-yl)-2,5-diphenyltetrazolium (MTT) assay. Briefly, HT-29 cells were seeded into 96-well plates at 1×10^4 cells/well (with a minimum of 6 wells per test condition) in RPMI 1640 medium supplemented with 10% FBS and 10 μg/ml of gentamicin. After overnight incubation at 37° C. under 5% CO2, the medium from each well was removed and replenished with fresh aliquots of the same medium containing various concentrations of test agents dissolved in DMSO (final concentration, 0.1%). Control cells were treated with DMSO alone at a concentration equal to that in drug-treated cells. After 24 h of drug exposure, the medium was removed and replaced by 100 μl of 0.5 mg/ml MTT in 10% FBS-containing medium, and the cells were incubated in the CO2 incubator at 37° C. for 2 h. Subsequently, medium was removed from each well, and the reduced MTT dye was dissolved with 100 μl of DMSO per well. Absorbance at 570 nm was measured with a plate reader. The 50% inhibitory concentration (IC50) of each drug was determined from dose-response curves by using CalcuSyn software (Biosoft, Cambridge, United Kingdom).
# S. aureus (ATCC 12598) = assay: MIC, broth microdilution; type: cell-based; conditions: Staphylococcus aureus, ATCC12598
# MRSA (ATCC 49476) = assay: MIC, broth microdilution; type: cell-based, methicillin-resistant Staphylococcus aureus; conditions: Staphylococcus aureus
# MRSA (ATCC 33592) = assay: MIC, broth microdilution; type: cell-based, methicillin-resistant Staphylococcus aureus
# [3] = tested on: S. epidermidis (ATCC 12228); assay: MIC, broth microdilution; type: cell-based; conditions: Staphylococcus epidermidis, ATCC12228
# [4] = Table XIII, S. aureus (SSCmecVT)
# [5] = Staphylococcus aureus, ATCC29213, 24 h, CAMHB, 24 h, 37° C., read-out: MIC S. aureus (ATCC 29213)
# [6] = Staphylococcus aureus, read-out: MIC MRSA (ATCC 33592)
# [7] = Staphylococcus aureus, MRSA, read-out: MIC MRSA (SCCmec VT)
"MIC S. aureus (ATCC 29213) (S. aureus (ATCC 29213); CAMHB, 24 h, 37° C.)",MIC S. epidermidis (ATCC 35984) [1],IC50 HT-29 cells [2] [mg/L],SMILES,other results
,,,CC1(C)S[C@@H]2[C@H](NC(=O)[C@H](N)c3ccccc3)C(=O)N2[C@H]1C(=O)O [Ampicillin],MIC (MRSA (SCCmec VT); [4]): > 64 mg/L
,,,"O=C(N[C@H](CO)[C@H](O)c1ccc([N+](=O)[O-])cc1)C(Cl)Cl [Chloramphenicol, chloramphenicol, reference compound]",MIC (MRSA (SCCmec VT); [4]): > 64 mg/L
4 mg/L,8 mg/L,12.5,NS(=O)(=O)c1ccc(-n2nc(C(F)(F)F)cc2-c2ccc(-c3ccc(Cl)cc3)cc2)cc1 [Compound 11],
4 mg/L,4 mg/L,3.6,NCC(=O)Nc1ccc(-n2nc(C(F)(F)F)cc2-c2ccc3c(ccc4ccccc43)c2)cc1 [Compound 23],
4 mg/L,4 mg/L,6.2,NCC(=O)Nc1ccc(-n2nc(C(F)(F)F)cc2-c2ccc3c(c2)Nc2ccccc2S3)cc1 [Compound 24],
4 mg/L,4 mg/L,6.5,NCC(=O)Nc1ccc(-n2nc(C(F)(F)F)cc2-c2ccc3oc4ccccc4c3c2)cc1 [Compound 25],
4 mg/L,4 mg/L,4.2,NCCC(=O)Nc1ccc(-n2nc(C(F)(F)F)cc2-c2ccc(-c3ccc(C(F)(F)F)cc3)cc2)cc1 [Compound 26],
4 mg/L,4 mg/L,6,NCCC(=O)Nc1ccc(-n2nc(C(F)(F)F)cc2-c2ccc3c(ccc4ccccc43)c2)cc1 [Compound 27],
4 mg/L,4 mg/L,7.5,NCCC(=O)Nc1ccc(-n2nc(C(F)(F)F)cc2-c2ccc3c(c2)Nc2ccccc2S3)cc1 [Compound 28],
4 mg/L,4 mg/L,7.2,NCCC(=O)Nc1ccc(-n2nc(C(F)(F)F)cc2-c2ccc3oc4ccccc4c3c2)cc1 [Compound 29],
4 mg/L,4 mg/L,3.2,NCCCC[C@@H](N)C(=O)Nc1ccc(-n2nc(C(F)(F)F)cc2-c2ccc3c(ccc4ccccc43)c2)cc1 [Compound 30],
4 mg/L,4 mg/L,17.5,NCCCC[C@@H](N)C(=O)Nc1ccc(-n2nc(C(F)(F)F)cc2-c2ccc3c(c2)Nc2ccccc2S3)cc1 [Compound 31],
4 mg/L,4 mg/L,3.3,NCCCC[C@H](N)C(=O)Nc1ccc(-n2nc(C(F)(F)F)cc2-c2ccc(-c3ccc(C(F)(F)F)cc3)cc2)cc1 [Compound 33],
2 mg/L,4 mg/L,19.5,NCCCC[C@H](N)C(=O)Nc1ccc(-n2nc(C(F)(F)F)cc2-c2ccc3c(ccc4ccccc43)c2)cc1 [Compound 34],
4 mg/L,4 mg/L,5.2,NCCCC[C@H](N)C(=O)Nc1ccc(-n2nc(C(F)(F)F)cc2-c2ccc3c(c2)Nc2ccccc2S3)cc1 [Compound 35],
,,,"NS(=O)(=O)Nc1ccc(-n2nc(C(F)(F)F)cc2-c2ccc(-c3ccccc3)cc2)cc1 [Compound 42, N-[4-(5-Biphenyl-4-yl-3-trifluoromethyl-pyrazol-1-yl)-phenyl]-aminosulfonamide]",MIC (S. aureus (ATCC 29213); [5]): 1 mg/L; MIC (S. aureus (ATCC 12598)): 1 mg/L; IC50 [2]: 16 mg/L; MIC (MRSA (ATCC 49476)): 1 mg/L; MIC (MRSA (ATCC 33592); [6]): 1 mg/L; MIC (MRSA (SCCmec VT); [7]): 1 mg/L
,,,"Cc1ccc(-c2ccc(-c3cc(C(F)(F)F)nn3-c3ccc(NS(N)(=O)=O)cc3)cc2)cc1 [Compound 43, N-{4-[5-(4′-Methylbiphenyl-4-yl)-3-trifluoromethyl-pyrazol-1-yl]-phenyl}-aminosulfonamide]",MIC (S. aureus (ATCC 29213); [5]): 1 mg/L; MIC [3]: 1 mg/L; MIC (S. aureus (ATCC 12598)): 1 mg/L; IC50 [2]: 9 mg/L; MIC (MRSA (ATCC 49476)): 1 mg/L; MIC (MRSA (ATCC 33592); [6]): 1 mg/L; MIC (MRSA (SCCmec VT); [7]): 1 mg/L
,,,"NS(=O)(=O)Nc1ccc(-n2nc(C(F)(F)F)cc2-c2ccc(-c3ccc(Br)cc3)cc2)cc1 [Compound 44, N-{4-[5-(4′-Bromobiphenyl-4-yl)-3-trifluoromethyl-pyrazol-1-yl]-phenyl}-aminosulfonamide]",MIC (S. aureus (ATCC 29213); [5]): 1 mg/L; MIC [3]: 1 mg/L; MIC (S. aureus (ATCC 12598)): 1 mg/L; IC50 [2]: 10 mg/L; MIC (MRSA (ATCC 49476)): 1 mg/L; MIC (MRSA (ATCC 33592); [6]): 1 mg/L; MIC (MRSA (SCCmec VT); [7]): 1 mg/L
,,,"NS(=O)(=O)Nc1ccc(-n2nc(C(F)(F)F)cc2-c2ccc3ccccc3c2)cc1 [Compound 45, N-[4-(5-Naphthalen-2-yl-3-trifluoromethyl-pyrazol-1-yl)-phenyl]-aminosulfonamide]",MIC (S. aureus (ATCC 29213); [5]): 1 mg/L; IC50 [2]: 19 mg/L
,,,NC[C@H]1O[C@H](O[C@H]2[C@H](O)[C@@H](O[C@H]3O[C@H](CO)[C@@H](O)[C@H](N)[C@H]3O)[C@H](N)C[C@@H]2N)[C@H](O)[C@@H](O)[C@@H]1O [Kanamycia],MIC (MRSA (SCCmec VT); [4]): > 64 mg/L
,,,"CS(=O)(=O)c1ccc(C2=C(c3ccccc3)C(=O)OC2)cc1 [Rofecoxib, rofecoxib, reference compound]","MIC (S. aureus (ATCC 29213); Staphylococcus aureus, ATCC29213, Table IX, S. aureus (ATCC 29213), read-out: MIC): > 64 mg/L; MIC (S. aureus (ATCC 29213); Table IX, S. aureus (ATCC 29213)): NE (no effect of the test agent at 64 μg/ml); MIC ([1]; Staphylococcus epidermidis, ATCC35984, Table IX, read-out: MIC): > 64 mg/L; MIC ([1]; Table IX): NE (no effect of the test agent at 64 μg/ml); MIC (MRSA (ATCC 33592); Staphylococcus aureus, Table IX, MRSA (ATCC 33592), read-out: MIC): > 64 mg/L; MIC (MRSA (ATCC 33592); Table IX, MRSA (ATCC 33592)): NE (no effect of the test agent at 64 μg/ml); MIC (MRSA (SCCmec VT); Staphylococcus aureus, MRSA, Table IX, MRSA (SCCmec VT), read-out: MIC): > 64 mg/L; MIC (MRSA (SCCmec VT); Table IX, MRSA (SCCmec VT)): NE (no effect of the test agent at 64 μg/ml)"
,,,"[H]/N=C(/N)N[C@H]1[C@H](O)[C@@H](O)[C@H](O[C@@H]2O[C@@H](C)[C@](O)(C=O)[C@H]2O[C@@H]2O[C@@H](CO)[C@H](O)[C@@H](O)[C@@H]2NC)[C@@H](N/C(N)=N\[H])[C@@H]1O [Streptomycin, streptomycin, reference compound]",MIC (MRSA (SCCmec VT); [4]): > 64 mg/L
,,,"CN(C)[C@@H]1C(O)=C(C(N)=O)C(=O)[C@@]2(O)C(O)=C3C(=O)c4c(O)cccc4[C@@](C)(O)[C@H]3C[C@@H]12 [Tetracycline, tetracycline, reference compound]",MIC (MRSA (SCCmec VT); [4]): 16 mg/L

SMILES,"MIC S. aureus (ATCC 29213) (S. aureus (ATCC 29213); CAMHB, 24 h, 37° C.)",MIC S. epidermidis (ATCC 35984) [1],IC50 HT-29 cells [2] [mg/L],other results
CCCCc1ccc(-c2cc(C(F)(F)F)nn2-c2ccc(C(N)=O)cc2)cc1 [Compound 10],did not exhibit appreciable activity at 64 μg/ml or improved activity relative to celecoxib,did not exhibit appreciable activity at 64 μg/ml or improved activity relative to celecoxib,,
FC(F)(F)c1cc(-c2ccc3c(ccc4ccccc43)c2)n(-c2ccccc2)n1 [Compound 21],did not exhibit appreciable activity at 64 μg/ml or improved activity relative to celecoxib,did not exhibit appreciable activity at 64 μg/ml or improved activity relative to celecoxib,,
NCC(=O)Nc1ccc(-n2nc(C(F)(F)F)cc2-c2ccc(-c3ccc(C(F)(F)F)cc3)cc2)cc1 [Compound 22],did not exhibit appreciable activity at 64 μg/ml or improved activity relative to celecoxib,did not exhibit appreciable activity at 64 μg/ml or improved activity relative to celecoxib,,
NCCCC[C@@H](N)C(=O)Nc1ccc(-n2nc(C(F)(F)F)cc2-c2ccc3oc4ccccc4c3c2)cc1 [Compound 32],did not exhibit appreciable activity at 64 μg/ml or improved activity relative to celecoxib,did not exhibit appreciable activity at 64 μg/ml or improved activity relative to celecoxib,,
